Source: patent US20190169134A1, “NOVEL CLASS OF QUINOLONE HETEROCYCLIC AROMATIC MOLECULES FOR CANCER TREATMENT” (RenoTarget Therapeutics, Inc., priority 2016, published 2019)

Experiments:
Assay in all cases: KinaseSeeker competition binding assay
GSK3A = target: T1, GSK3A (Homo sapiens, UniProt P49840)
T1 construct: made in house; host or cells: cell-free, rabbit reticulocyte lysate
Procedure: (§1) Compound Reno647 was profiled against the following panel of kinases at 2 μM using the KinaseSeeker™ assay: ABL1, AKT1, AKT2, AKT3, ALK, AURKA, AXL, BRAF, BTK, CDK2, CDK5, CDK7, CDK8, CSF1R, DDR1, EGFR del L747-P753 InsS, EGFR (L861Q), EGFR (G719S), EGFR, EGFR (L858R), EPHA2, EPHB2, FGFR3, FLT1/VEGFR1, FLT2/FGFR1, FLT3, FLT4/VEGFR3, GSK-3a, HER2, IGF1R, INSR, KIT, LIMK1, MET, MLK2/MAP3K10, RPS6KA5/MSK1, MUSK, p38a/MAPK12, PDGFRA, PDGFRB, PDK1, RET, RIPK2, RPS6KA1/RSK1, SRC, TEC, TESK1, TRKB, VEGFR2, and YES 1.
(§2) KinaseSeeker is a homogeneous competition binding assay where the displacement of an active site dependent probe by an inhibitor is measured by a change in luminescence signal (see FIG. 7). Luminescence readout translates into a highly sensitive and robust assay with low background and minimal interference from test compounds.
(§3) (Jester, Cox et al. 2010; Jester, Gaj et al. 2012): 10 mM stock of compound Reno647 was diluted in DMSO to a concentration of 50 μM. Prior to initiating a profiling campaign, the compound was evaluated for false positive against split-luciferase. The compound was then screened in duplicate against each of the kinases. For kinase assays, each Cfluc-Kinase was translated along with Fos-Nfluc using a cell-free system (rabbit reticulocyte lysate) at 30° C. for 90 min. A 24 μL aliquot of this lysate containing either 1 μL of DMSO (for no-inhibitor control) or compound solution in DMSO (2 LM final concentration) was incubated for 30 minutes at room temperature followed by 1 hour in the presence of a kinase specific probe. A 80 μL of luciferin assay reagent was added to each solution and luminescence was immediately measured on a luminometer.
(§4) The % Inhibition and % Activity Remaining were calculated using the following equations:
(§5) % inhibition=(ALUcontrol−ALUsample)×100
(§6) % activity=100−% inhibition.

ABL1 = target: T2, ABL1 (Homo sapiens, UniProt P00519)
T2 construct: made in house; host or cells: cell-free system (rabbit reticulocyte lysate)
Procedure: as §1, §2, §3, §4, §5, §6

CDK7 = target: T3, CDK7 (Homo sapiens, UniProt P50613)
T3 construct: made in house; host or cells: cell-free system (rabbit reticulocyte lysate)
Procedure: as §1, §2, §3, §4, §5, §6

AKT3 = target: T4, AKT3 (Homo sapiens, UniProt Q9Y243)
T4 construct: made in house; host or cells: cell-free system (rabbit reticulocyte lysate)
Procedure: as §1, §2, §3, §4, §5, §6

RET = target: T5, RET (Homo sapiens, UniProt P07949)
T5 construct: made in house; host or cells: cell-free, rabbit reticulocyte lysate
Procedure: as §1, §2, §3, §4, §5, §6

CDK5 = target: T6, CDK5 (Homo sapiens, UniProt Q00535)
T6 construct: made in house; host or cells: cell-free system (rabbit reticulocyte lysate)
Procedure: as §1, §2, §3, §4, §5, §6

VEGFR2 = target: T7, VEGFR2 (Homo sapiens, UniProt P35968)
T7 construct: made in house; host or cells: cell-free, rabbit reticulocyte lysate
Procedure: as §1, §2, §3, §4, §5, §6

EPHB2 = target: T8, EPHB2 (Homo sapiens, UniProt P29323)
T8 construct: made in house; host or cells: cell-free system (rabbit reticulocyte lysate)
Procedure: as §1, §2, §3, §4, §5, §6

AXL = target: T9, AXL (Homo sapiens, UniProt P30530)
T9 construct: made in house; host or cells: cell-free system (rabbit reticulocyte lysate)
Procedure: as §1, §2, §3, §4, §5, §6

MSK1 = target: T10, MSK1 (Homo sapiens, UniProt O75582)
T10 construct: made in house; host or cells: cell-free, rabbit reticulocyte lysate
Procedure: as §1, §2, §3, §4, §5, §6

RIPK2 = target: T11, RIPK2 (Homo sapiens, UniProt O43353)
T11 construct: made in house; host or cells: cell-free, rabbit reticulocyte lysate
Procedure: as §1, §2, §3, §4, §5, §6

INSR = target: T12, INSR (Homo sapiens, UniProt P06213)
T12 construct: made in house; host or cells: cell-free, rabbit reticulocyte lysate
Procedure: as §1, §2, §3, §4, §5, §6

SRC = target: T13, SRC (Homo sapiens, UniProt P12931)
T13 construct: made in house; host or cells: cell-free, rabbit reticulocyte lysate
Procedure: as §1, §2, §3, §4, §5, §6

FLT4 = target: T14, FLT4 (Homo sapiens, UniProt P35916)
T14 construct: made in house; host or cells: cell-free, rabbit reticulocyte lysate
Procedure: as §1, §2, §3, §4, §5, §6

FLT1 = target: T15, FLT1 (Homo sapiens, UniProt P17948)
T15 construct: made in house; host or cells: cell-free system (rabbit reticulocyte lysate)
Procedure: as §1, §2, §3, §4, §5, §6

CDK8 = target: T16, CDK8 (Homo sapiens, UniProt P49336)
T16 construct: made in house; host or cells: cell-free system (rabbit reticulocyte lysate)
Procedure: as §1, §2, §3, §4, §5, §6

MUSK = target: T17, MUSK (Homo sapiens, UniProt O15146)
T17 construct: made in house; host or cells: cell-free, rabbit reticulocyte lysate
Procedure: as §1, §2, §3, §4, §5, §6

YES1 = target: T18, YES1 (Homo sapiens, UniProt P07947)
T18 construct: made in house; host or cells: cell-free, rabbit reticulocyte lysate
Procedure: as §1, §2, §3, §4, §5, §6

BRAF = target: T19, BRAF (Homo sapiens, UniProt P15056)
T19 construct: made in house; host or cells: cell-free system (rabbit reticulocyte lysate)
Procedure: as §1, §2, §3, §4, §5, §6

p38a = details: 2 μM
Procedure: as §1, §2, §3, §4, §5, §6

AKT1 = target: T20, AKT1 (Homo sapiens, UniProt P31749)
T20 construct: made in house; host or cells: cell-free system (rabbit reticulocyte lysate)
Procedure: as §1, §2, §3, §4, §5, §6

FGFR3 = target: T21, FGFR3 (Homo sapiens, UniProt P22607)
T21 construct: made in house; host or cells: cell-free system (rabbit reticulocyte lysate)
Procedure: as §1, §2, §3, §4, §5, §6

CSF1R = target: T22, CSF1R (Homo sapiens, UniProt P07333)
T22 construct: made in house; host or cells: cell-free system (rabbit reticulocyte lysate)
Procedure: as §1, §2, §3, §4, §5, §6

DDR1 = target: T23, DDR1 (Homo sapiens, UniProt Q08345)
T23 construct: made in house; host or cells: cell-free system (rabbit reticulocyte lysate)
Procedure: as §1, §2, §3, §4, §5, §6

TRKB = target: T24, TRKB (Homo sapiens, UniProt Q16620)
T24 construct: made in house; host or cells: cell-free, rabbit reticulocyte lysate
Procedure: as §1, §2, §3, §4, §5, §6

PDPK1 = target: T25, PDPK1 (Homo sapiens, UniProt O15530)
T25 construct: made in house; host or cells: cell-free, rabbit reticulocyte lysate
Procedure: as §1, §2, §3, §4, §5, §6

CDK2 - Cyclin E1 = target: T26, CDK2 - Cyclin E1 (Homo sapiens, UniProt P24941)
T26 construct: made in house; host or cells: cell-free system (rabbit reticulocyte lysate)
Procedure: as §1, §2, §3, §4, §5, §6

ALK = target: T27, ALK (Homo sapiens, UniProt Q9UM73)
T27 construct: made in house; host or cells: cell-free system (rabbit reticulocyte lysate)
Procedure: as §1, §2, §3, §4, §5, §6

MLK2 = target: T28, MLK2 (Homo sapiens, UniProt Q02779)
T28 construct: made in house; host or cells: cell-free, rabbit reticulocyte lysate
Procedure: as §1, §2, §3, §4, §5, §6

AURKA = target: T29, AURKA (Homo sapiens, UniProt O14965)
T29 construct: made in house; host or cells: cell-free system (rabbit reticulocyte lysate)
Procedure: as §1, §2, §3, §4, §5, §6

T21 sequence (P22607 23-806): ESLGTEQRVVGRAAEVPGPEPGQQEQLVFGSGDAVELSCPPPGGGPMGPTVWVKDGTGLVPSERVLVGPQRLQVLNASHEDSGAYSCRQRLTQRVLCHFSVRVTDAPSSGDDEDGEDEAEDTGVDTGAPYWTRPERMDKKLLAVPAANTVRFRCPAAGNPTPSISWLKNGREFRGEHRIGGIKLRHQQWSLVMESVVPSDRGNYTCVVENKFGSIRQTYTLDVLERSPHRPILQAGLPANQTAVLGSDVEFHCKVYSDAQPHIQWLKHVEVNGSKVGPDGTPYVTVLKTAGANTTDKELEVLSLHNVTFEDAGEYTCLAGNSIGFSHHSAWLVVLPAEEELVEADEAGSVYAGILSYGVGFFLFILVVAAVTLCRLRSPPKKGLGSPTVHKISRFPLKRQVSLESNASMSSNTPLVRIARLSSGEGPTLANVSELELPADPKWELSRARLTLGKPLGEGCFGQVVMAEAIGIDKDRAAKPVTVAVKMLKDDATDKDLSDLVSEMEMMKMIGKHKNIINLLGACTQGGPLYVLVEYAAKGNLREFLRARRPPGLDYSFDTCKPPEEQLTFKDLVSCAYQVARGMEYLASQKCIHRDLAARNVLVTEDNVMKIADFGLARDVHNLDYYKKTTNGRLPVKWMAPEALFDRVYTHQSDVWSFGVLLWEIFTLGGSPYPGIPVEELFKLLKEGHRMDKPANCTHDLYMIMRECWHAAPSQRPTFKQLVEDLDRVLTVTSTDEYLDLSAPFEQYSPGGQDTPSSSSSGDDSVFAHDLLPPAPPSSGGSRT
T17 sequence (O15146 24-869): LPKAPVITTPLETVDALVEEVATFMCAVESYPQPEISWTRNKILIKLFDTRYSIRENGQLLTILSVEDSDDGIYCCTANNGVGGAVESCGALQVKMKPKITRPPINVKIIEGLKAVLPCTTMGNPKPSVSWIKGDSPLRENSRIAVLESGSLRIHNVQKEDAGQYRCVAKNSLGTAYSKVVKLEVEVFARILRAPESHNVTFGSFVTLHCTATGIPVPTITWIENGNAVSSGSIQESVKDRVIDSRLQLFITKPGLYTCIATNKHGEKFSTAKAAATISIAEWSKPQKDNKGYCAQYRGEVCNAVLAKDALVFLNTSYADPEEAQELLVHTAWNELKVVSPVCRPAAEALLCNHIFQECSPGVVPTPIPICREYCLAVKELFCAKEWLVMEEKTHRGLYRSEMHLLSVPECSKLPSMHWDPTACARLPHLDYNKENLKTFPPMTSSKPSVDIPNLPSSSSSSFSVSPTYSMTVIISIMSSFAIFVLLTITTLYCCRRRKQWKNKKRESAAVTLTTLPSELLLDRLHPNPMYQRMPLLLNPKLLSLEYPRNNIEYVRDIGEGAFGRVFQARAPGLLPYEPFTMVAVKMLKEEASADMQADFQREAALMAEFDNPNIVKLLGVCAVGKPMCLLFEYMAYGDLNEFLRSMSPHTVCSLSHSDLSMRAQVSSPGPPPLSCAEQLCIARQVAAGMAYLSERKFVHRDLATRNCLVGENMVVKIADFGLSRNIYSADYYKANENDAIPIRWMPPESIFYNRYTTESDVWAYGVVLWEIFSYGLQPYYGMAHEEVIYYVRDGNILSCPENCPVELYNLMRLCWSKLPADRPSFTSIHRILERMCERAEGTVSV
T27 sequence (Q9UM73 19-1620): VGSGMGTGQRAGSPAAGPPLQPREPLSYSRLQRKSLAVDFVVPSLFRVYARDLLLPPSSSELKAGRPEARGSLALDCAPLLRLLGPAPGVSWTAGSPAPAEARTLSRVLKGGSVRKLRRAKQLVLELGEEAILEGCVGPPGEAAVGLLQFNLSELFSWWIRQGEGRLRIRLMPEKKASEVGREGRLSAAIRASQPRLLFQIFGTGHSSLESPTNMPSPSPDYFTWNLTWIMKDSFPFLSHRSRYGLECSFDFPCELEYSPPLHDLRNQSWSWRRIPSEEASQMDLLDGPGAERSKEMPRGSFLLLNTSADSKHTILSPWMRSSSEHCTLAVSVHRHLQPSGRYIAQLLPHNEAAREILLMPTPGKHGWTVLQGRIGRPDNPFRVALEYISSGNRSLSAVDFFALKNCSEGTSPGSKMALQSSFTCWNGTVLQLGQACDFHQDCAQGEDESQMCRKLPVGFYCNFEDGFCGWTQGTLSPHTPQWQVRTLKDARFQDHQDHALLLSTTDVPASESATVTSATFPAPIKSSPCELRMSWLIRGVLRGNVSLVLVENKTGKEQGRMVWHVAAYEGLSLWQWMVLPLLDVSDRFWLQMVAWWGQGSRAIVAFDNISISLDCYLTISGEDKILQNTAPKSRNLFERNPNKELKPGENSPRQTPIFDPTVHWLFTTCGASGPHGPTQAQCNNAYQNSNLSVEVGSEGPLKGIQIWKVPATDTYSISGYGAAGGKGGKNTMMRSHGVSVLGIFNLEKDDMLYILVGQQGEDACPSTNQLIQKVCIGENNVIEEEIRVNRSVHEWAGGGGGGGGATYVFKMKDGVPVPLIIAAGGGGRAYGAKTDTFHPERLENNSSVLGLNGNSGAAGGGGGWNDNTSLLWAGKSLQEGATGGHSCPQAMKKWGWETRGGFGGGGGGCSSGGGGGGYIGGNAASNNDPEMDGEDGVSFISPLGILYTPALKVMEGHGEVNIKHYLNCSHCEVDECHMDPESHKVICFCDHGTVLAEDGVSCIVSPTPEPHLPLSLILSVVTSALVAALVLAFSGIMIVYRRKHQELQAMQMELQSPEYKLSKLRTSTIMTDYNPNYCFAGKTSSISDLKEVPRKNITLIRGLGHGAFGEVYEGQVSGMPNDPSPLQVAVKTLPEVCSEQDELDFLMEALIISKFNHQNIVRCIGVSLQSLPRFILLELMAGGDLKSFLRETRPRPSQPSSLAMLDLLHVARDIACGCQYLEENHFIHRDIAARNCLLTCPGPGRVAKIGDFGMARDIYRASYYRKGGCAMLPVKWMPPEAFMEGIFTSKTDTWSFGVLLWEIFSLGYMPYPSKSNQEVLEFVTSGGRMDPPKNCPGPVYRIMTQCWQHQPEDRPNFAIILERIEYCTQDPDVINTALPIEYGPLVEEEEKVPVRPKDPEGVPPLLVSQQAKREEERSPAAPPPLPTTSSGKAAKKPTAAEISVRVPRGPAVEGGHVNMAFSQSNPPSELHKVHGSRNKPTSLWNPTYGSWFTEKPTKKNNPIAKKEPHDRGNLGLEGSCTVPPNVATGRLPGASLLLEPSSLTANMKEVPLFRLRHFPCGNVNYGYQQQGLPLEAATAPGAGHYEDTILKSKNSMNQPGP
T25 sequence (O15530 whole entry): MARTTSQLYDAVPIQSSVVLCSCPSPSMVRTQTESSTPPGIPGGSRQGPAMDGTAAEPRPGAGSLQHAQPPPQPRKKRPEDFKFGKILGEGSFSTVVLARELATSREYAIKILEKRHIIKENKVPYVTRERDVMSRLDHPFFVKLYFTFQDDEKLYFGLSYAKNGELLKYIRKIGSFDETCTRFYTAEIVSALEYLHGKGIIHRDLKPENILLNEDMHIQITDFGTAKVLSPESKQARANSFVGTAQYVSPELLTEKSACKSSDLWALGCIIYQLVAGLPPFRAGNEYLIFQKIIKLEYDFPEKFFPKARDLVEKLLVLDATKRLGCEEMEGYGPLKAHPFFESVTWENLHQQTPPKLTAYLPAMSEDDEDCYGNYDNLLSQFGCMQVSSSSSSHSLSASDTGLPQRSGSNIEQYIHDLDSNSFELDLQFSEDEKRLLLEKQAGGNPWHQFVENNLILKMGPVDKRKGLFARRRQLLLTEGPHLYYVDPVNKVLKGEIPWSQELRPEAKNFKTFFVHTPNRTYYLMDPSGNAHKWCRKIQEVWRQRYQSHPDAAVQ
T9 sequence (P30530 26-894): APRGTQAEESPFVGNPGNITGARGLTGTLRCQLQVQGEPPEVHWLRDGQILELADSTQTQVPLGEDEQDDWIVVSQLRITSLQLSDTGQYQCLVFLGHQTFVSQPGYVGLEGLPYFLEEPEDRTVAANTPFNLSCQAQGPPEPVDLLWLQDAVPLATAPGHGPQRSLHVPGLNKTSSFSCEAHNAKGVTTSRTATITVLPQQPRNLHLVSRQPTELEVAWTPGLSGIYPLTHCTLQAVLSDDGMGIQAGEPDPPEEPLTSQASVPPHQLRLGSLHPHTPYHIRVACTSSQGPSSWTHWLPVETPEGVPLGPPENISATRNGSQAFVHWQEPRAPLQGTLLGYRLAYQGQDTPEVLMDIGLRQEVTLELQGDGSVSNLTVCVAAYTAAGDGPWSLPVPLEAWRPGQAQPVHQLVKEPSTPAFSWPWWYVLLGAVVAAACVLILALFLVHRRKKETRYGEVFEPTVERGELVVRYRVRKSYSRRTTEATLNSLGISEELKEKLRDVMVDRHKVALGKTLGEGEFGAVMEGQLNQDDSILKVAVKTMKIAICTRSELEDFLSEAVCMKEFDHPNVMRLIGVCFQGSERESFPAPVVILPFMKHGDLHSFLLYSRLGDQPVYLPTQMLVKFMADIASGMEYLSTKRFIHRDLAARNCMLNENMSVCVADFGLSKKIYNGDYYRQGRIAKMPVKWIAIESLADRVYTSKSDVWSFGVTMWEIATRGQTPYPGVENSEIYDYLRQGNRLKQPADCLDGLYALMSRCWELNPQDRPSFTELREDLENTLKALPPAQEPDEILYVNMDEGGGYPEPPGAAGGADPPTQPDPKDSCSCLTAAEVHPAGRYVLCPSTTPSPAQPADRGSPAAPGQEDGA
T3 sequence (P50613 whole entry): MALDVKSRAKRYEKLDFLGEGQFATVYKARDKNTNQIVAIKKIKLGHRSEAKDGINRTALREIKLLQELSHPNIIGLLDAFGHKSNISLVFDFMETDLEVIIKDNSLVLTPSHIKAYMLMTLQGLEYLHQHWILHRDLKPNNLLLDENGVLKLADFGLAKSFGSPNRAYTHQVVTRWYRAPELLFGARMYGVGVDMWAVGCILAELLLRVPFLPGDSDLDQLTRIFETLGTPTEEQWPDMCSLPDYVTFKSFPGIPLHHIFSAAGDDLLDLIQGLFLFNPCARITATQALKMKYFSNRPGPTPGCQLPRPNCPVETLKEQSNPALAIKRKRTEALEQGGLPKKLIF

- remaining binding at 2 µM (GSK3A): 100%
- remaining binding at 2 µM (ABL1): 100%
- remaining binding at 2 µM (CDK7): 95.5%
- remaining binding at 2 µM (AKT3): 100%
- remaining binding at 2 µM (RET): 100%
- remaining binding at 2 µM (CDK5): 99.5%
- remaining binding at 2 µM (VEGFR2): 92.8%
- remaining binding at 2 µM (EPHB2): 100%
- remaining binding at 2 µM (AXL): 73.2%
- remaining binding at 2 µM (MSK1): 100%
- remaining binding at 2 µM (RIPK2): ~41%
- remaining binding at 2 µM (INSR): 84.6%
- remaining binding at 2 µM (SRC): 84.9%
- remaining binding at 2 µM (FLT4): 79.8%
- remaining binding at 2 µM (FLT1): 80.5%
- remaining binding at 2 µM (CDK8): 92.3%
- remaining binding at 2 µM (MUSK): 91.8%
- remaining binding at 2 µM (YES1): 87.1%
- remaining binding at 2 µM (BRAF): 100%
- % Activity Remaining (p38a): 100.0%
- remaining binding at 2 µM (AKT1): 96.8%
- remaining binding at 2 µM (FGFR3): 98.9%
- remaining binding at 2 µM (CSF1R): 97.6%
- remaining binding at 2 µM (DDR1): ~42%
- remaining binding at 2 µM (TRKB): 88.4%
- remaining binding at 2 µM (PDPK1): 92.8%
- remaining binding at 2 µM (CDK2 - Cyclin E1): 100%
- remaining binding at 2 µM (ALK): 92.1%
- remaining binding at 2 µM (MLK2): 99.7%
- remaining binding at 2 µM (AURKA): 100%
SMILES: C#Cc1cccc(Nc2ncnc3cc(OCCOC)c(NC(=O)c4ccc(F)c([N+](=O)[O-])c4)cc23)c1 [Reno647, 4-Fluoro-N-[4-(3-ethynyl-phenylamino)-7-(2-methoxy-ethoxy)-quinazolin-6-yl]-3-nitro-benzamide]
